# Data published in PubChem BioAssay AID2060506 (Molecular Pharmacology Branch, DTP, NCI, 2025).
# Tested on: 598228-144-R-J1-PDC complex spheroid viability
# Assay: Anticancer human tumor 598228-144-R-J1-PDC patient-derived serous endometrial adenocarcinoma cell line growth inhibition [GQUAD]
# Details: for IC50: curve of first compound; for viability, T/C: stronger effect = lower value
# Outline: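 Viability of tumor cells grown as complex spheroids with endothelial and stromal cells, exposed to drug combinations. Top concentration at or near clinical Cmax (else 10 microM), diluted in half-log increments.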
# [1] = second compound 0.0316 µM, first compound 0.0316 µM
# [2] = second compound 0.0316 µM, first compound 0.1 µM
# [3] = second compound 0.0316 µM, first compound 0.316 µM
# [4] = second compound 0.0316 µM, first compound 1 µM
# [5] = second compound 0.0316 µM, first compound 3.16 µM
# [6] = second compound 0.0316 µM, first compound 10 µM
# [7] = second compound 0.1 µM, first compound 0.0316 µM
# [8] = second compound 0.1 µM, first compound 0.1 µM
# [9] = second compound 0.1 µM, first compound 0.316 µM
# [10] = second compound 0.1 µM, first compound 1 µM
# [11] = second compound 0.1 µM, first compound 3.16 µM
# [12] = second compound 0.1 µM, first compound 10 µM
# [13] = second compound 0.316 µM, first compound 0.0316 µM
# [14] = second compound 0.316 µM, first compound 0.1 µM
# [15] = second compound 0.316 µM, first compound 0.316 µM
# [16] = second compound 0.316 µM, first compound 1 µM
# [17] = second compound 0.316 µM, first compound 3.16 µM
# [18] = second compound 0.316 µM, first compound 10 µM
# [19] = second compound 1 µM, first compound 0.0316 µM
# [20] = second compound 1 µM, first compound 0.1 µM
# [21] = second compound 1 µM, first compound 0.316 µM
# [22] = second compound 1 µM, first compound 1 µM
# [23] = second compound 1 µM, first compound 3.16 µM
# [24] = second compound 1 µM, first compound 10 µM
# [25] = second compound 3.16 µM, first compound 0.0316 µM
# [26] = second compound 3.16 µM, first compound 0.1 µM
# [27] = second compound 3.16 µM, first compound 0.316 µM
# [28] = second compound 3.16 µM, first compound 1 µM
# [29] = second compound 3.16 µM, first compound 3.16 µM
# [30] = second compound 3.16 µM, first compound 10 µM
# [31] = second compound 10 µM, first compound 0.0316 µM
# [32] = second compound 10 µM, first compound 0.1 µM
# [33] = second compound 10 µM, first compound 0.316 µM
# [34] = second compound 10 µM, first compound 1 µM
# [35] = second compound 10 µM, first compound 3.16 µM
# [36] = second compound 10 µM, first compound 10 µM
# 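Further: spheroids exposed to the agents for one week before reading.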
# 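Wherever viability, T/C is given: percent of vehicle DMSO control viability so 100% = untreated growth.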
compound,measurement,setting,value
COc1cccc2c1C(=O)c1c(O)c3c(c(O)c1C2=O)CC(O)(C(=O)CO)CC3OC1CC(N)C(O)C(C)O1 (stereo unspecified) + CN(C)c1ccc(Nc2c3ccc(NC(=O)CCN4CCCC4)cc3nc3cc(NC(=O)CCN4CCCC4)ccc23)cc1,IC50,second compound 0.0316 µM,547 nM
same,IC50,second compound 0.1 µM,586 nM
same,IC50,second compound 0.316 µM,617 nM
same,IC50,second compound 1 µM,655 nM
same,IC50,second compound 3.16 µM,774 nM
same,IC50,second compound 10 µM,536 nM
same,"viability, T/C",[1],79.1%
same,"viability, T/C",[2],83.3%
same,"viability, T/C",[3],66.6%
same,"viability, T/C",[4],31%
same,"viability, T/C",[5],1.02%
same,"viability, T/C",[6],0.57%
same,"viability, T/C",[7],95.5%
same,"viability, T/C",[8],84.8%
same,"viability, T/C",[9],71%
same,"viability, T/C",[10],33.5%
same,"viability, T/C",[11],2.25%
same,"viability, T/C",[12],0.29%
same,"viability, T/C",[13],96.1%
same,"viability, T/C",[14],73.2%
same,"viability, T/C",[15],68.9%
same,"viability, T/C",[16],42.2%
same,"viability, T/C",[17],3.61%
same,"viability, T/C",[18],0.89%
same,"viability, T/C",[19],87.1%
same,"viability, T/C",[20],73.7%
same,"viability, T/C",[21],58.4%
same,"viability, T/C",[22],51.9%
same,"viability, T/C",[23],1.46%
same,"viability, T/C",[24],1.05%
same,"viability, T/C",[25],81.6%
same,"viability, T/C",[26],80.1%
same,"viability, T/C",[27],71.6%
same,"viability, T/C",[28],44.3%
same,"viability, T/C",[29],1.7%
same,"viability, T/C",[30],0.36%
same,"viability, T/C",[31],59.8%
same,"viability, T/C",[32],64.5%
same,"viability, T/C",[33],47.7%
same,"viability, T/C",[34],42.3%
same,"viability, T/C",[35],1.22%
same,"viability, T/C",[36],0.77%
CC[C@@]1(O)C(=O)OCc2c1cc1n(c2=O)Cc2cc3c(CN(C)C)c(O)ccc3nc2-1 + Cc1cnc(CNC(=O)c2c(=O)c3ccc(N4CCCN(C)CC4)nc3n3c2sc2ccccc23)cn1,IC50,second compound 0.0316 µM,> 316 nM
same,IC50,second compound 0.1 µM,> 316 nM
same,IC50,second compound 0.316 µM,> 316 nM
same,IC50,second compound 1 µM,> 316 nM
same,IC50,second compound 3.16 µM,> 316 nM
same,IC50,second compound 10 µM,< 0.999 nM
same,"viability, T/C","second compound 0.0316 µM, first compound 0.000999 µM",83.8%
same,"viability, T/C","second compound 0.0316 µM, first compound 0.00316 µM",107%
same,"viability, T/C","second compound 0.0316 µM, first compound 0.00999 µM",93.2%
same,"viability, T/C",[1],81.6%
same,"viability, T/C","second compound 0.0316 µM, first compound 0.0999 µM",54.8%
same,"viability, T/C",[3],53.9%
same,"viability, T/C","second compound 0.1 µM, first compound 0.000999 µM",85.1%
same,"viability, T/C","second compound 0.1 µM, first compound 0.00316 µM",80.2%
same,"viability, T/C","second compound 0.1 µM, first compound 0.00999 µM",65.5%
same,"viability, T/C",[7],68.7%
same,"viability, T/C","second compound 0.1 µM, first compound 0.0999 µM",64.2%
same,"viability, T/C",[9],63.6%
same,"viability, T/C","second compound 0.316 µM, first compound 0.000999 µM",69.2%
same,"viability, T/C","second compound 0.316 µM, first compound 0.00316 µM",67.9%
same,"viability, T/C","second compound 0.316 µM, first compound 0.00999 µM",68.8%
same,"viability, T/C",[13],78.2%
same,"viability, T/C","second compound 0.316 µM, first compound 0.0999 µM",73.1%
same,"viability, T/C",[15],76.6%
same,"viability, T/C","second compound 1 µM, first compound 0.000999 µM",71%
same,"viability, T/C","second compound 1 µM, first compound 0.00316 µM",72.9%
same,"viability, T/C","second compound 1 µM, first compound 0.00999 µM",71.1%
same,"viability, T/C",[19],68.3%
same,"viability, T/C","second compound 1 µM, first compound 0.0999 µM",75.7%
same,"viability, T/C",[21],58%
same,"viability, T/C","second compound 3.16 µM, first compound 0.000999 µM",67.4%
same,"viability, T/C","second compound 3.16 µM, first compound 0.00316 µM",58.6%
same,"viability, T/C","second compound 3.16 µM, first compound 0.00999 µM",58.7%
same,"viability, T/C",[25],52%
same,"viability, T/C","second compound 3.16 µM, first compound 0.0999 µM",65.6%
same,"viability, T/C",[27],59.4%
same,"viability, T/C","second compound 10 µM, first compound 0.000999 µM",42.5%
same,"viability, T/C","second compound 10 µM, first compound 0.00316 µM",41.2%
same,"viability, T/C","second compound 10 µM, first compound 0.00999 µM",47.7%
same,"viability, T/C",[31],52.3%
same,"viability, T/C","second compound 10 µM, first compound 0.0999 µM",36%
same,"viability, T/C",[33],40.9%
COc1ccc([C@@H](O)c2cc(-c3ncnc4cc(N5CCOCC5)ccc34)c(F)cc2Cl)nn1 + Cc1[nH]c2ccc(F)cc2c1-c1nc2c3cccnc3c3ncccc3c2[nH]1,IC50,second compound 0.0316 µM,3140 nM
same,IC50,second compound 0.1 µM,1220 nM
same,IC50,second compound 0.316 µM,1290 nM
same,IC50,second compound 1 µM,222 nM
same,IC50,second compound 3.16 µM,< 31.6 nM
same,IC50,second compound 10 µM,112 nM
same,"viability, T/C",[1],96.8%
same,"viability, T/C",[2],114%
same,"viability, T/C",[3],87.8%
same,"viability, T/C",[4],76.7%
same,"viability, T/C",[5],50.4%
same,"viability, T/C",[6],29.1%
same,"viability, T/C",[7],112%
same,"viability, T/C",[8],96%
same,"viability, T/C",[9],62.6%
same,"viability, T/C",[10],59.5%
same,"viability, T/C",[11],35%
same,"viability, T/C",[12],26%
same,"viability, T/C",[13],82.2%
same,"viability, T/C",[14],71.5%
same,"viability, T/C",[15],72.8%
same,"viability, T/C",[16],50.5%
same,"viability, T/C",[17],40.8%
same,"viability, T/C",[18],32.4%
same,"viability, T/C",[19],64.2%
same,"viability, T/C",[20],67.4%
same,"viability, T/C",[21],37.4%
same,"viability, T/C",[22],36.9%
same,"viability, T/C",[23],27.4%
same,"viability, T/C",[24],18.8%
same,"viability, T/C",[25],48.3%
same,"viability, T/C",[26],44.9%
same,"viability, T/C",[27],34.1%
same,"viability, T/C",[28],21.1%
same,"viability, T/C",[29],18.9%
same,"viability, T/C",[30],15.2%
same,"viability, T/C",[31],61.5%
same,"viability, T/C",[32],49.6%
same,"viability, T/C",[33],43.9%
same,"viability, T/C",[34],31.1%
same,"viability, T/C",[35],25.6%
same,"viability, T/C",[36],22.5%
